Laboratory results as given in patent US20180256561A1, “Pharmaceutical Combination” (GLAXOSMITHKLINE INTELLECTUAL PROPERTY DEVELOPMENT LIMITED, priority 2015, published 2018).
Where two headings read alike, the source gives them in different places.

What was measured:
subjects with COPD [1] = details: 400 mcg and 1200 mcg once daily, 14 days; cited from earlier work
subjects with COPD [2] = details: 28-day study; cited from earlier work
[3] = system: subjects with persistent uncontrolled asthma; assay: Randomised, double-blind, placebo-controlled parallel group study of fluticasone furoate in subjects with persistent uncontrolled asthma (8 weeks); assay type: in vivo, human
Procedure: In one such study, the safety and efficacy of four doses of fluticasone furoate in subjects with persistent uncontrolled asthma were evaluated. In this study, which was a randomised, double-blind, placebo-controlled, parallel group study, 598 patients received one of six treatments: fluticasone furoate (25, 50, 100 or 200 mcg) once daily, fluticasone propionate 100 mcg twice daily or placebo for 8 weeks. The primary endpoint was change from baseline in trough (pre-dose) forced expiratory volume in 1 second (FEV1) at Week 8. […] This study supports the use of fluticasone furoate (100 or 200 mcg once-daily) for the treatment of persistent uncontrolled asthma.

| SMILES | tolerability (subjects with COPD [1]) | tolerability (subjects with COPD [2]) | increase in trough FEV1 from baseline at Week 8 relative to placebo ([3]; 100 mcg once daily) | increase in trough FEV1 from baseline at Week 8 relative to placebo ([3]; 200 mcg once daily) |
| --- | --- | --- | --- | --- |
| COc1cc(NC(=O)CCN2CCC(OC(=O)Nc3ccccc3-c3ccccc3)CC2)c(Cl)cc1CNC[C@H](O)c1ccc(O)c2[nH]c(=O)ccc12 [Compound 1, biphenyl-2-ylcarbamic acid 1-[2-(2-chloro-4-{[(R)-2-hydroxy-2-(8-hydroxy-2-oxo-1,2-dihydroquinolin-5-yl)ethylamino]methyl}-5-methoxyphenylcarbamoyl)ethyl]piperidin-4-yl ester] | well tolerated | well tolerated | – | – |
| C[C@@H]1C[C@H]2[C@@H]3C[C@H](F)C4=CC(=O)C=C[C@]4(C)[C@@]3(F)[C@@H](O)C[C@]2(C)[C@@]1(OC(=O)c1ccco1)C(=O)SCF [Compound 2, 6α,9α-difluoro-17α-[(2-furanylcarbonyl)oxy]-11β-hydroxy-16α-methyl-3-oxo-androsta-1,4-diene-17β-carbothioic acid S-fluoromethyl ester] | – | – | > 200 mL | > 200 mL |
